Test results from patent US6812226B2, “P2X7 receptor antagonists for use in the treatment of inflammatory, immune or cardiovascular disease” (AstraZeneca AB, priority 1999, dated 2004).

SMILES | melting point [°C]
O=C1OCc2ccccc2N1C1CCN(c2ccc(NCc3ncc[nH]3)cc2Cl)CC1 | 222 to 224
N#CC(NC(=O)c1cnc(N2CCC(N3C(=O)OCc4ccccc43)CC2)c(Cl)c1)C(N)=O (centres unmarked) | 159 to 162
Nc1ccc(N2CCC(N3C(=O)OCc4ccccc43)CC2)c(Cl)c1 | 158
COC(=O)c1ccccc1C(=O)c1ccc(N2CCC(N3C(=O)OCc4ccccc43)CC2)c([N+](=O)[O-])c1 | 177 to 179
CC(C)C(=O)Nc1ccc(N2CCC(N3C(=O)OCc4ccccc43)CC2)c(Cl)c1 | 228
CC(C)NC(=O)c1csc(N2CCC(N3C(=O)OCc4ccccc43)CC2)n1 | 214 to 215
CC(C)NC(=O)c1cnc(N2CCC(N3C(=O)COc4ccccc43)CC2)c(Cl)c1 | 85 to 88
CC(C)NC(=O)c1ccc(N2CCC(N3C(=O)OCc4ccccc43)CC2)c([N+](=O)[O-])c1 | 193 to 195
C#CC(C)(C)NC(=O)c1cnc(N2CCC(N3C(=O)OCc4ccccc43)CC2)c(Cl)c1 | 135 to 138
CC(C)NC(=O)c1cnc(N2CCC(N3C(=O)OCc4ccccc43)CC2)nc1 | 236 to 239
CC(C)C[C@@H](NC(=O)c1cnc(N2CCC(N3C(=O)OCc4ccccc43)CC2)c(Cl)c1)C(N)=O | 139 to 142
CC(C)NC(=O)c1ccc(N2CCC(N3C(=O)OCc4ccccc43)CC2)c(S(C)(=O)=O)c1 | 240 to 242
COCCNC(=O)c1ccc(N2CCC(N3C(=O)OCc4ccccc43)CC2)c([N+](=O)[O-])c1 | 192 to 193
CC(C)NC(=O)c1cnc(N2CCC(n3c(=O)oc4ccccc43)CC2)c(Cl)c1 [Example 166, 5-Chloro-N-(1-methylethyl)-6-[4-(2-oxo-1,3-benzoxazol-3(2H)-yl)piperidin-1-yl]pyridine-3-carboxantide] | 162 to 168
CC(C)NS(=O)(=O)c1ccc(N2CCC(N3C(=O)OCc4ccccc43)CC2)c([N+](=O)[O-])c1 | 168
CC(C)[C@@H](NC(=O)c1cnc(N2CCC(N3C(=O)OCc4ccccc43)CC2)c(Cl)c1)C(N)=O | 140 to 143
CC(C)S(=O)(=O)Nc1ccc(N2CCC(N3C(=O)OCc4ccccc43)CC2)c(Cl)c1 | 175
NC(=O)c1ccccc1C(=O)c1ccc(N2CCC(N3C(=O)OCc4ccccc43)CC2)c([N+](=O)[O-])c1 | 180 to 182
COC(=O)c1ccccc1C(=O)c1ccc(N2CCC(N3C(=O)OCc4ccc(Cl)cc43)CC2)c([N+](=O)[O-])c1 | 90 to 92
CC(C)NC(=O)c1ccc(N2CCC(N3C(=O)OCc4ccccc43)CC2)nn1 | 120
CC(C)NC(=O)c1cnc(N2CC[C@H](N3C(=O)OCc4ccccc43)[C@@H](C)C2)c(Cl)c1.Cl | 195
O=C(O)c1ccccc1C(=O)c1ccc(N2CCC(N3C(=O)CCc4ccccc43)CC2)c([N+](=O)[O-])c1 | 201 to 203
CC(C)NC(=O)c1cnc(N2CCC(N3C(=O)OCc4ccccc43)CC2)nc1C(F)(F)F | 217 to 219
CC(C)C[C@H](NC(=O)c1cnc(N2CCC(N3C(=O)OCc4ccccc43)CC2)c(Cl)c1)C(N)=O | 139 to 142
O=C(O)c1ccccc1C(=O)c1ccc(N2CCC(N3C(=O)OCc4ccccc43)CC2)c([N+](=O)[O-])c1 | 243 to 244
O=C(c1ccccc1)c1ccc(N2CCC(N3C(=O)OCc4ccccc43)CC2)c([N+](=O)[O-])c1 | 272 to 273
CC(CO)NC(=O)c1cnc(N2CCC(N3C(=O)OCc4ccccc43)CC2)c(Cl)c1 (centres unmarked) | 125 to 128
CN1CCC[C@H]1C(=O)Nc1ccc(N2CCC(N3C(=O)OCc4ccccc43)CC2)c(Cl)c1 | 155
CC(C)NC(=O)c1ccc(N2CCC(N3C(=O)OCc4ccccc43)CC2)c(C#N)c1 | 200
